# Square brackets hold non-standard residues; d marks the D form. Peptide text beside a SMILES is read from it. Nle = CCCC[C@H](N)C(=O)O
# Columns and labels:
# calpain = experiment: Calpain inhibitor test: Fura-2 and EYFP fluorescence in primary cultures of cerebellum expressing F2C, potassium stimulation; type: cell-based, rat; conditions: ALLN 100 μM, ALLM 50 μM; for percentage of F535 EYFP maximum fluorescence change to Fura-2 maximum ratio change versus control free of calpain inhibitors: p>0.28; for percentage of F535 EYFP maximum fluorescence change to Fura-2 maximum ratio change (mean ± S.E.M.): preincubation 1 hr, potassium stimulation, n=10 cells
# Method: (§1) The primary culture of cerebellum was incubated at 37° C., in 5% CO2 and 95% O2 atmosphere. The cells on a cover glass slip were infected with Sindbis-F2C 24 hrs before the incubation with Fura-2/AM (Molecular Probes, Eugene, Oregon, U.S.A.). This glass slip was transferred to a new dish filled with an external solution (ACSF, artificial cerebro-spinal fluid; 155 mM NaCl, 2.5 mM CaCl2, 1 mM MgCl2, 10 mM, HEPES, 17 mM glucose and 5 mM KOH and adjusted to pH 7.4). Fura-2/AM was added to a final concentration of 20 μM, and further incubated for 30 min at 37° C. Fura-2/AM (10 mM) stock was dissolved in DMSO. Cerebella cultures were transferred under the upright microscope equipped with a cooled CCD camera, and the image was prepared (ORCA-ER on Aquacosmos, Hamamatsu Photonics, Hamamatsu, Japan). For Fura-2 imaging, excitation light at wavelength 340 nm (10 nm band widths, 100% transmission) and excitation light at wavelength 380 nm (10 nm band widths, 100% transmission) were alternately applied, and fluorescence was captured at 510 nm and at longer wavelength. When F2C fluorescence was measured simultaneously, excitation light at 440 nm (10 nm band widths, 100% transmission) was applied and the fluorescence at a wavelength longer than 510 nm was captured. This fluorescence corresponds to EYFP. When FRET was measured from brain slice preparations or from cerebella cultures, neurons were excited at 440 nm (20 nm band width 60% transmission, XF1071 Omega Optical) with a dichroic mirror at 435 ram (XF2034 Omega Optical) and the fluorescence was monitored through 480 nm (30 nm bandwidth 75% transmission, XF3075 Omega Optical) for ECFP and 535 nm (25 nm bandwidth 70% transmission, XF3079 Omega Optical+50% ND filter) for EYFP.
# To test the inhibition of calpain activities, calpain inhibitor-1 (ALLN, Calbiochem) and calpain inhibitor-2 (ALLM, Calbiochem) were adopted and Fura-2 fluorescence and EYFP fluorescence measurements were similarly conducted. The primary cultures of cerebellum were preincubated in ACSF containing ALLN (100 μM in DMSO), ALLM (50 μM in DMSO) or a combination of both for 1 hr. The same concentration of DMSO was added to ACSF as a control.
# [1] = test system: cochlear nucleus neurons in brain slices; experiment: FRET fluorescence ratio (ECFP/EYFP) in cochlear nucleus neurons of brain-stem slices after in vivo Sindbis injection, KCl stimulation; type: cell-based, rat
# Method: Young Wistar rats (9-10 days old) were anesthetized with chloral hydrate (0.3 mg/g body weight). Then, the head of rat was fixed on a stereotaxis stage with a pair of ear bars and a nose clamp (SR-5N, Narishige, Tokyo, Japan). The head skin was sagittally incised and a small hole was made through the skull to expose the cerebellum. A micropipette was inserted through cerebellum, and a suspension of Sindbis virus encoding F2C protein (Sindbis-F2C) was injected (0.5-1 μl) into the brainstem by applying a mild positive pressure to the micropipette with the mouth. The incised part of the skin was then sutured and the rat was returned to the mother after recovery from anesthesia. […]
# (§2) The primary culture of cerebellum was incubated at 37° C., in 5% CO2 and 95% O2 atmosphere. […] For Fura-2 imaging, excitation light at wavelength 340 nm (10 nm band widths, 100% transmission) and excitation light at wavelength 380 nm (10 nm band widths, 100% transmission) were alternately applied, and fluorescence was captured at 510 nm and at longer wavelength. When F2C fluorescence was measured simultaneously, excitation light at 440 nm (10 nm band widths, 100% transmission) was applied and the fluorescence at a wavelength longer than 510 nm was captured. This fluorescence corresponds to EYFP. […]
# [2] = test system: cerebellar Purkinje cells; experiment: FRET fluorescence ratio (ECFP/EYFP) in cultured Purkinje cells expressing the indicator, KCl stimulation; type: cell-based, rat
# Method: Purkinje cells were cultured in the same manner as reported previously (Weber, A. et al., Brain Res., 311, 119-130, 1984/Hirano, T. et al., Proc. Natl. Acad. Sci. U.S.A., 83, 1945-1949, 1986). In short, cerebella were dissected from Wistar rat fetus (about 20 days of fetal stage), and meninges were removed. The cerebella were incubated at 20° C. for 4 min in 1% trypsin (Invitrogen, California, U.S.A.)/0.05% DNase (Sigma, Missouri, U.S.A.) solution containing 137 mM NaCl, 5 mM KCl, 7 mM Na2PO4, and 25 mM HEPES (pH 7.2). After washing with Ca^2+- and Mg^2+-free Hanks' balanced salt solution (Invitrogen) three times, the tissue was dispersed by trituration with a fire polished Pasteur pipette in Ca^2+-free Hanks' balanced salt solution containing 0.05% DNase and 12 mM MgSO4. The cell suspension was centrifuged at 180×g at room temperature and the pelletized cells were resuspended at a concentration of 10^6 cells per 1 ml in a defined medium, which facilitates the survival of neurons (Weber, A. et al., Brain Res., 311, 119-130, 1984/Fischer, G. et al., Neurosci Lett, 28, 325-329, 1982). 2 ml of this cell suspension was plated on a Petri dish containing several heat-sterilized glass coverslips coated with 0.01% poly-L-lysin (Sigma). This cell culture was incubated at 37° C. in 5% CO2. The cells on the glass coverslips were used for infection with Sindbis virus. […]
# as §2
# μ-calpain = target: T1, μ-calpain (Homo sapiens, UniProt P07384); experiment: Western blotting for cleavage of the fusion protein by calpain; type: biochemical; conditions: incubated with purified μ-calpain in Ca-EGTA buffer (data not shown)
# T1 construct: purchased Calbiochem
# T1 sequence (P07384 1-714): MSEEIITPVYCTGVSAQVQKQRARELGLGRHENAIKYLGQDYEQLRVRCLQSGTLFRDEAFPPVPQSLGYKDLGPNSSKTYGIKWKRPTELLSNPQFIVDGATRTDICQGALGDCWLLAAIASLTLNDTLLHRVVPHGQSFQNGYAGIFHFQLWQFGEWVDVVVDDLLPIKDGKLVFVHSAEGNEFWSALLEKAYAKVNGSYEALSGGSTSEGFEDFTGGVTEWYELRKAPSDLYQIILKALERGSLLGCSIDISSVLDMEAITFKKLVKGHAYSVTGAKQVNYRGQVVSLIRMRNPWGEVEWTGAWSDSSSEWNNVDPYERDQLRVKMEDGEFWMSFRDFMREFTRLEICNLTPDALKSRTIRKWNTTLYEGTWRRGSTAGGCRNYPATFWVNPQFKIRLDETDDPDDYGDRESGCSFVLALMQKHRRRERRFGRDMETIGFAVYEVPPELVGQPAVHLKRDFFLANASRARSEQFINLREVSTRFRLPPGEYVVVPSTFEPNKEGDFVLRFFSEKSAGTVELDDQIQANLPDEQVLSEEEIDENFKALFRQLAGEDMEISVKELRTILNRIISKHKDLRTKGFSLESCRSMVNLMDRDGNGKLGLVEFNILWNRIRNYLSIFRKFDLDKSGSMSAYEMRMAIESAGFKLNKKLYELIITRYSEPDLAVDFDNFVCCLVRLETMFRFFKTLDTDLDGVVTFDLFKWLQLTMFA
# T1 sequence (P04632 1-268 partner): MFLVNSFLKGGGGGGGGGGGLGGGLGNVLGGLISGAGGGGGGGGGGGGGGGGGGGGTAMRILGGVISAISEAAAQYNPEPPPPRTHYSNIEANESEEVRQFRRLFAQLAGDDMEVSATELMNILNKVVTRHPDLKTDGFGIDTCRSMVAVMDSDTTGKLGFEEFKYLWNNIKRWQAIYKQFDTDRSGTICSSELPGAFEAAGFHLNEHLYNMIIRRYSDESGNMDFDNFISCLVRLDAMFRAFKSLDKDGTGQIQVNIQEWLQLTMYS
# Method: To obtain cell lysate, cells were pelletized and homogenized in EGTA buffer (10 mM EGTA-Na, 10 mM HEPES-K, 150 mM NaCl) or Ca-EGTA buffer (10 mM CaCl2, 10 mM EGTA-Na, 10 mM HEPES-K, 150 mM NaCl). The Ca^2+ concentration was finally adjusted to 20 μM. The cell lysates contained the protease inhibitor cocktail (Nacalai Tesque). The cell lysates were incubated at 30° C. for 30 min or 60 min. In some experiments, cell lysates were incubated with a purified μ-calpain (Calpain I, Calbiochem, California, U.S.A.) at 30° C. for 30 min or 60 min. These cell lysates were centrifuged at 20,000×g for 20 min and the supernatants were fractionated. The supernatants were loaded onto 10% SDS-PAGE gels. Western blotting was carried out according to the method of Towbin et al. (Towbin, H. et al., Proc. Natl. Acad. Sci. U.S.A., 76, 4350-4354, 1979), using mouse anti-GFP antibody for detecting F2C cleavage (dilution rate 1:1000, MBL, Nagoya, Japan) and anti-PKC α antibody (dilution rate 1:500, Upstate, N.Y., U.S.A.) to confirm calpain activity.
# Ca^2+ = experiment: Simultaneous Fura-2 and F2C fluorescence measurement, Ca2+ titration and kinetics; type: cell-based, rat
# Method: as §1
# Rmax=2.38 and Rmin=0.58 were obtained by measurement from the Purkinje cell membrane loaded with Fura-2 perforated with 1 μM ionomycin, after equilibration with normal ACSF ([…]) for Rmax and equilibration with 0 mM CaCl2, 10 mM EGTA ACSF for Rmin. […]
Compound,percentage of F535 EYFP maximum fluorescence change to Fura-2 maximum ratio change versus control free of calpain inhibitors (calpain),percentage of F535 EYFP maximum fluorescence change to Fura-2 maximum ratio change (mean ± S.E.M.) (calpain) [%],"time over which reversible changes of the ECFP/EYFP fluorescence ratio were observed ([1]; 10 mM KCl stimulation, cochlear nucleus neurons, FIG. 9)","change of FRET fluorescence ratio on exposure to high KCl solution ([1]; brainstem slices, 15 mM KCl applied 3 times)",ECFP/EYFP fluorescence ratio change ([2]; Purkinje cells 14DIV exposed to 7.5 mM KCl (basal 5 mM)) [fold],ECFP/EYFP fluorescence ratio change ([2]; Purkinje cells 14DIV exposed to 10 mM KCl (basal 5 mM)) [fold],ECFP/EYFP fluorescence ratio change ([2]; Purkinje cells 14DIV exposed to 15 mM KCl (basal 5 mM)) [fold],fragmented protein signal in Western blot (cleavage by calpain) (μ-calpain),"speed of Ca^2+ response (20-80% rise time of F535) compared with Fura-2 (F340/F380) (Ca^2+; n=240 cells, various CaCl2 and KCl conditions)","Hill coefficient (Ca^2+; titration of F2C, pH 7.4)","Kd (Ca^2+; titration of F2C, pH 7.4, read-out: apparent Kd value for Ca^2+) [nM]"
CSCC[C@@H](C=O)NC(=O)[C@H](CC(C)C)NC(=O)[C@H](CC(C)C)NC(C)=O [ALLM] (Ac-Leu-Leu-Met-aldehyde),not different,35.9 ± 1.4,,,,,,,,,
CCCC[C@@H](C=O)NC(=O)[C@H](CC(C)C)NC(=O)[C@H](CC(C)C)NC(C)=O [ALLN] (Ac-Leu-Leu-[Nle]-aldehyde),not different,37.1 ± 2.1,,,,,,,,,
"F2C: Fusion protein (SEQ ID NO:6): GAP43 palmitoylation signal, ECFP, two α-spectrin calpain sensitive sequences, EYFP",,,at least 200 min,changed reversibly,1.03,1.39,1.78,not detected,almost the same speed,4,150

# — patent publication US7713713B2, “Polypeptide having intracellular calcium ion indicator function” (Kyoto University, priority 2005, dated 2010)
